Measured values from patent US6452005B1, “JAK-3 inhibitors for treating allergic disorders” (Parker Hughes Institute, priority 1999, dated 2002).

Columns and labels:
[1] = target: T1, SYK (Homo sapiens, UniProt P43405); test: Immune complex kinase assay, SYK from Sf21 cells; type: biochemical; conditions: concentrations as high as 350 μM
T1 construct: made in house; host or cells: Sf21 insect cells, baculovirus
From the text: Immune Complex Kinase Assays.

[2] = target: T2, IRK (Homo sapiens, UniProt P06213); test: Immune complex kinase assay, IRK from HepG2 cells; type: biochemical; conditions: concentrations as high as 350 μM
T2 construct: IRK was immunoprecipitated from the lysates with an anti-IRb antibody; endogenous in cells; host or cells: HepG2 human hepatoma cells, insulin-stimulated
Protocol: For insulin receptor kinase (IRK) assays, HepG2 human hepatoma cells grown to approximately 80% confluency were washed once with serum-free DMEM and starved for 3 hours at 37° in a CO2 incubator. Subsequently, cells were stimulated with insulin (Eli Lilly, cat# CP-410;10 units/ml/10×10^6 cells) for 10 minutes at room temperature. Following this IRK activation step, cells were washed once with serum free medium, lysed in NP-40 buffer and IRK was immunoprecipitated from the lysates with an anti-IRb antibody (Santa Cruz, Cat.# sc-711, polyclonal IgG). Prior to performing the immune complex kinase assays, the beads were equilibrated with the kinase buffer (30 mM Hepes pH 7.4, 30 mM NaCl, 8 mM MgCl2, 4 mM MnCl2).

[3] = test system: RBL-2H3 mast cells; test: IgE/antigen-induced activation (cell spreading, microtubule organization) by confocal microscopy; type: cell-based, rat; conditions: 30 μM, two hour incubation
Protocol: RBL-2H3 cells were cultured overnight on 22×22 mm coverslips at a cell density of 0.01×10^6/ml with […] DNP-IgE. Sensitized RBL-2H3 cells were then treated with 30 μM WHI-P131, vehicle, or control compounds WHI-P258 and WHI-P112 prior to challenge with DNP-BSA, as described in the legend of FIG. 4. After stimulation with DNP-BSA for 1 hour, cells were fixed in cold methanol for 15 minutes followed by permeabilization with PBS containing 0.1% Triton X-100. […] After washing 3 times with PBS-0.1% Triton X-100, cells were incubated with fluorescein labeled secondary antibody (Zymed, San Francisco, Calif.) for another 40 minutes. Cells were washed three times to remove unbound antibody. DNA labeling was performed by incubation of coverslips with toto-3 (Molecular Probes, Eugene, Oreg.) for 10 minutes. Excessive dye was washed with PBS-0.1% Triton X-100. Cells were visualized under MRC 1024 Laser Scanning Microscope after mounting with Vectashield (Vector laboratories, Inc, Burlingame, Calif.), as previously reported.
Confocol Microscopy: Staining of mast cells with primary and secondary antibodies followed by confocal laser scanning microscopy was performed as previously described in detail (Uckun et. al., 1998, Clin. Cancer Res., 4:901-912). After staining with appropriate primary and secondary antibodies, cells were washed three times to remove unbound antibody. DNA labeling was performed by incubation of coverslips with toto-3 (Molecular Probes, Eugene, Oreg.) for 10 min. Excessive dye was washed with PBS-0.1% triton X-100. Cells were visualized under MRC 1024 Laser Scanning Microscope after mounting with Vectashield (Vector laboratories, Inc, Burlingame, Calif.).
In a systematic effort aimed at elucidating the biologic consequences of JAK3 inhibition in mast cells, we first sought to determine if the JAK3 inhibitor WHI-P131 could prevent the IgE receptor/FcεRI-mediated activation of mast cells. Since the IgE receptor/FcεRI-mediated activation of mast cells results in a distinct morphologic transformation with marked cell spreading due to membrane ruffling, microtubule formation and actin polymerization (Apgar, 1997), we evaluated the effects of WHI-P131 on the activation-associated transformation of shape and surface topography of RBL-2H3 mast cells using confocal laser scanning microscopy (Ghosh et. al., 1998).

[4] = test system: RBL-2H3 cells; test: Calcium mobilization assay (Fluo-3); type: cell-based, rat
Protocol: IgE sensitized RBL-2H3 cells were loaded with 1 μM Fluo-3 for 1 hour as described in the Examples below. The cells were then challenged with DNP-BSA or ionomycin and change in fluorescence was recorded. To study the effect of WHI-P131 on intracellular calcium mobilization, IgE-sensitized and Fluo-3 loaded RBL-2H3 cells were incubated with 3 μM, 12 μM or 30 μM WHI-P131 for 5 minutes prior to challenge with DNP-BSA or ionomycin.
Calcium Measurement: Calcium mobilization assay was performed as described earlier (Zhu et. al., 1998, Clin. Cancer Res., 4:2967-2976). RBL-2H3 cells were loaded with Fluo-3 and stimulated with DNP-BSA in presence and absence of WJI-P131 as described above. Calcium response was measured by an calcium imaging device (Universal Imaging Co., West Chester, Pa.) mounted onto a inverted microscope. The exitation wavelength was 485 nm and the emission wavelength for detection was 535 nm. The fluorescent image of an individual cell was acquired by a CCD72 video camera (Dage-MTI Inc., Michigan City, Ill.) at the speed of 1 frame/s and digitized by computer.

[5] = test system: BALB/c mice; test: Passive cutaneous anaphylaxis model; type: in vivo; conditions: 25 mg/kg i.p. dose level
Protocol: FIG. 14A is a graph showing the effects of WHI-P131 on anaphylaxis-associated vascular hyperpermeability, examined by evaluating the cutaneous extravasation of albumin-bound Evans blue dye in mice (n=12). The plasma exudation indices were determined for vehicle treated as well as WHI-P131 treated mice, as described in the Examples. To study the effect of WHI-P131 on anaphylaxis, IgE sensitized mice were injected with two consecutive doses of 10 or 25 mg/kg WHI-P131 at 90 minutes before and 30 minutes before the antigen challenge, respectively. Mice were then challenged with 100 μg DNP-BSA in 2% Evans blue dye and the plasma exudation indices were determined. […] The data are expressed as plasma exudation index (times increase in optical density over PBS treated ears. The mean OD (at 620 nm) of vehicle treated ears was 0.22±0.04 before and 0.918±0.05 after the IgE/antigen challenge. *p<0.05 compared to vehicle treated controls.
After 20 hours, mice were treated with WHI-P131 (10 or 25 mg/kg i.p.) twice at 1 hour intervals prior to the antigen challenge. […] For quantitation of Evans blue dye extravasation as a measure of anaphylaxis-associated vascular hyperpermeability, 8 mm skin specimens were removed from the ears of mice, minced in 2 ml formamide and incubated at 80° C. for 2 hours in water bath to extract the dye. The absorbance was read at 620 nm. […]

[6] = test system: JAK3; test: JAK3 activation in RBL-2H3 mast cells after IgE receptor crosslinking; conditions: 30 μM
Protocol: Cells were lysed at the indicated time points, and SYK immune complexes were subjected to kinase assays in the presence of cold ATP followed by APT immunoblotting (upper panels in 8C & 8D) as well as to SYK Western blot analysis (lower panels in 8C & 8D).
Immune-Complex Kinase Assays and Western Blot Analyses of Mast Cell Lysates. […] Cells were harvested, lysed (10 mM Tris pH 7.6, 100 mM NaCl, 1% Nonidet P-40, 10% glycerol, 50 mM NaF, 100 mM Na3VO4, 50 mg/ml phenylmethylsulfonyl fluoride, 10 mg/ml aprotonin, 10 mg/ml leupeptin), and the kinases were immunoprecipitated from the lysates, as reported (Uckun et. al., 1995, Science, 267:886-891; Uckun et. al., 1996, Science, 273:1096-1100). […] Immunoprecipitations, and immunoblotting using the ECL chemiluminescence detection system (Amersham Life Sciences) were conducted as described previously (Uckun et. al., 1996, Science, 273:1096-1100).

T2 sequence (P06213 763-1382 limits assumed): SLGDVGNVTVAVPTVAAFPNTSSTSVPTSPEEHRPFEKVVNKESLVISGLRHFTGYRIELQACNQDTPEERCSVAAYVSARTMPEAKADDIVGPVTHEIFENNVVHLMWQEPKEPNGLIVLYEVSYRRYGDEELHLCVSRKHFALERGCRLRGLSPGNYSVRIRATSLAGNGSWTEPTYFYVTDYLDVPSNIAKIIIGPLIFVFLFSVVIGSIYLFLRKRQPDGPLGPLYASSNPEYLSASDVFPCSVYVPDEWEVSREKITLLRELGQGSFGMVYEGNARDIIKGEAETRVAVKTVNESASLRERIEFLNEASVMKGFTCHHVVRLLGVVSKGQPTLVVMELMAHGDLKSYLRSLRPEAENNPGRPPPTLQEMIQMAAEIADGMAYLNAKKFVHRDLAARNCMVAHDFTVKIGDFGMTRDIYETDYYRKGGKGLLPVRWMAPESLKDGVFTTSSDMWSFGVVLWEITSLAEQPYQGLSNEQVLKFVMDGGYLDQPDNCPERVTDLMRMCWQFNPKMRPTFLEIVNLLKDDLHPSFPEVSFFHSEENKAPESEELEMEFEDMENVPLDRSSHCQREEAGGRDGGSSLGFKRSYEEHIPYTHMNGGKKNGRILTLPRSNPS
T2 sequence (P06213 28-758 partner limits assumed): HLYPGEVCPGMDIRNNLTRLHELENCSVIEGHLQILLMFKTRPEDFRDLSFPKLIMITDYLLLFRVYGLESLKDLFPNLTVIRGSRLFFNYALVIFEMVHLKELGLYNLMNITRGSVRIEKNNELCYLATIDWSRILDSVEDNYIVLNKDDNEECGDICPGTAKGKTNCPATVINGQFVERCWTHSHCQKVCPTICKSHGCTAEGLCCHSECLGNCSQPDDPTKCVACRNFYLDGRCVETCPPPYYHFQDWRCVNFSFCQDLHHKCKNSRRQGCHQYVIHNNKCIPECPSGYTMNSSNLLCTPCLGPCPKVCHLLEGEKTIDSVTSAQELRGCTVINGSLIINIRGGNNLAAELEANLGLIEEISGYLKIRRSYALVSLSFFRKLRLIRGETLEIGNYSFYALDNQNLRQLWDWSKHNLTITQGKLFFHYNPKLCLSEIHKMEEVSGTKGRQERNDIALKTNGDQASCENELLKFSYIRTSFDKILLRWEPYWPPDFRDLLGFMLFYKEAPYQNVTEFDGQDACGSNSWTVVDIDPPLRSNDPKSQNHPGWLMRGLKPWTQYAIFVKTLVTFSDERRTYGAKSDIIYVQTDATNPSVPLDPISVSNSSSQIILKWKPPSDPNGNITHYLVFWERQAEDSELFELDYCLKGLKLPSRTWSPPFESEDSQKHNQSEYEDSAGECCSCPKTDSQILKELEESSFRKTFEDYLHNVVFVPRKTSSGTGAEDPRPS

## COc1cc2ncnc(Nc3ccc(O)cc3)c2cc1OC [WHI-P131, 4-(4′-Hydroxylphenyl)-amino-6,7-dimethoxyquinazoline]
[1]
  effect on enzymatic activity of SYK: did not affect
[2]
  effect on enzymatic activity of IRK: did not affect
[3]
  IgE/antigen-induced mast cell activation (spreading and microtubule organization): prevented
  cells spindle shaped after IgE/antigen: 58%
[3]; 93% without drug
  cells flattened after IgE/antigen: 23%
[4]
  ionomycin induced nonspecific calcium responses: not affected
[4]; 30 μM, IgE-sensitized, Fluo-3 loaded
  calcium response to DNP-BSA: abrogated
[5]
  inhibition of IgE/antigen induced plasma exudation (Evans blue extravasation): 70%
[6]
  JAK3 activation after IgE receptor crosslinking: abrogated
